One molecule from patent US12678445B2, “Methods for treating glioblastoma” (BOARD OF REGENTS, THE UNIVERSITY OF TEXAS SYSTEM, priority 2020, dated 2026) can be followed below.

Test [1] deals with murine GBM cell lines (GL261). Kind of test: GBM (GL261) tumor bearing mice: tumor growth and survival. Particulars: FIG. 4. It counts as in vivo. An excerpt:
(§1) To test this hypothesis, the inventors crossed LysM^cre (Jackson Laboratory. 004781) and KDm6B^fl/fl (Jackson Laboratory, 029615) mice to generate LysM^creKDm6B^fl/fl mice. The inventors inoculated murine GBM cell lines (GL261) into the LysM^creKDm6B^fl/fl mice (FIG. 5). […] The pre-clinical data provide a strong rationale of testing KDM6B inhibitor in clinic in combination with immune checkpoint therapy.

For another test, the system named is myeloid cells. Kind of test: Macrophage / myeloid cell phenotype in GBM tumor bearing mice. The conditions noted are these: compared with myeloid specific depletion of KDM6B (increasing type I and type II IFN responses and antigen presenting pathways). Type of test: in vivo.
Excerpt: as §1

In the case of `CCOC(=O)CCNc1cc(N2CCc3ccccc3CC2)nc(-c2ccccn2)n1` [GSK-J4], in test [1], the survival result is given as “improved survival” and the tumor growth result is reported as “attenuated tumor growth”. The “changes of macrophage phenotype” value in the test on myeloid cells was “could recapitulate the changes of macrophage phenotype”.
